From patent US7056491B2, “Monoterpenes and sesquiterpenes as chemotherapeutic and radiation sensitizers and immunomodulators” (Wisconsin Alumni Research Foundation, priority 2000, dated 2006)
Read-outs that look alike come from different tables or passages of the source.

Assays:
[1] = test system: PC3 prostate cancer cells; assay: Clonogenic survival assay, POH with or without radiation, PC3; type: cell-based, human
Description: FIGS. 2–14 illustrates additional work with other monoterpenes and cell lines. […] Subconfluent cultures prostate cancer cell line PC3 were treated with 0.1–0.5 mM of POH for 72 hours and subsequently to increasing doses of radiation from 0.1 Gy to 8.5 Gy. Control cells were treated with the indicated doses of radiation alone. The cells were harvested and an optimum number of cells were allowed to growth for 14 days. The resulting colonies were stained and counted. Each graphed point represents mean values ± SE values of triplicate dishes.
(§1) Table 1 summarizing data from different cell lines treated with radiation, radiation plus POH, and POH alone. Subconfluent cultures of human glioma (T98G, M059K, U251), prostate (DU145, PC3), colon (DLD-1, HT29) and pancreatic (MIAPACA) cancer cell lines were treated with 0.1–0.5 mM of POH for 72 hours and subsequently to increasing doses of radiation from 0.1 Gy to 8.5 Gy. Control cells were treated with medium alone. The cells were harvested and an optimum number of cells were allowed to grow for 14 days. The resulting colonies were stained and counted. Each graphed point represents mean values ± SE values of triplicate dishes. Percentage survival was determined as the ratio of plating efficiencies for each irradiated group to that of the unirradiated control.

DLD-1 colon cancer cells = assay: Clonogenic survival assay, POH with or without radiation, DLD-1; type: cell-based, human
Description: as §1

[2] = rats, 2% POH diet for 10 weeks; cited from earlier work
[3] = test system: T98G and U87MG cell lines; assay: Inhibition of Fas-induced apoptosis by antagonistic antibody ZB4; type: cell-based; conditions: 1 mM POH with CH11, absence of cycloheximide; inhibited by ZB4
Description: Referring to FIG. 26, semiconfluent culture plates T98G and U87MG cell lines were treated with the 1 mM POH in the presence or absence of the anti-CD95 antibody CH11 (100 ng/ml), cycloheximide (CX), the Fas-induced apoptosis blocking antibody ZB4 (2 ug/ml) or a combination of all for a period of 72 hours. Viability analysis was carried out using propidium iodide solution by flow cytometric analysis. Each graphed point in the figure represents the average values of duplicate samples.

[4] = test system: Fas-sensitive Jurkat cell line; assay: Cell death of Jurkat cells incubated with POH-treated T98G; type: cell-based; conditions: T98G treated 0.1 mM–0.5 mM 48 hours, then Jurkat 48 hours
Description: Referring to FIG. 27, subconfluent cells of T98G cells were treated with varying concentrations of perillyl alcohol (0.1 mM–0.5 mM) for 48 hours. At the end of the incubation the media was changed, cells from a Fas-sensitive Jurkat cell line were added to the plate, and the incubation was continued further for 48 hours. At the end of the incubation the target cells (Jurkat) were harvested, washed and the cell viability was assessed.

T98G cells = assay: Clonogenic survival, POH pretreatment then cisplatin, T98G; type: cell-based, human; conditions: POH 0.1 mM–0.5 mM 48 hours then cisplatin 0.05 uM–1 uM 48 hours
Description: Referring to FIG. 28, subconfluent cells of T98G cells were treated with varying concentrations of perillyl alcohol (0.1 mM–0.5 mM) for 48 hours and subsequently treated with the indicated dose of cisplatin (0.05 uM–1 uM) for 48 hours. At the end of the treatment, POH pretreated and untreated cells in the presence and absence of cisplatin, were harvested, washed with PBS, plated at the desired cell number and incubated for two weeks. The colonies were stained with crystal violet and quantitated. Survival was determined as the ratio of plating efficiencies for each irradiated group to that of the untreated control.

[5] = test system: DU145 prostate cancer cells; assay: Clonogenic survival assay, POH with or without radiation, DU145; type: cell-based, human
Description: Subconfluent cultures of prostate cancer cell line DU145 were treated with 0.1–0.5 mM of POH for 72 hours and subsequently to increasing doses of radiation from 0.1 Gy to 8.5 Gy. Control cells were treated with the indicated doses of radiation alone. The cells were harvested and an optimum number of cells were allowed to grow for 14 days. The resulting colonies were stained and counted. Each graphed point represents mean values ± SE values of triplicate dishes.
as §1

rat mammary carcinoma = conditions: cited from earlier work; for regression of rat mammary carcinoma: dietary administration
[6] = test system: glioma, prostate, colon and melanoma cell lines; assay: Apoptosis by flow cytometry of propidium iodide stained cells (sub G0/G1 peak); type: cell-based, human; conditions: 72 hours
Excerpt: In the present study we evaluated the effect of POH treatment on a panel of human glioma (T98G, MO59K, U-87, U-373, U-251), prostate cancer cell lines (PC3 and DU145), colon (DLD-1, HT29), melanoma (Mel5, M21).

C=C(C)[C@@H]1CC=C(CO)CC1 [POH, Perillyl alcohol]
% SURVIVAL ([1]; 0.1 mM POH 72 h, no radiation): 0.734 ± 0.038% | % SURVIVAL ([1]; 0.1 mM POH + 5.5 Gy): 0.007 ± 0.0009% | % SURVIVAL ([1]; 0.3 mM POH 72 h, no radiation): 0.366 ± 0.017% | % SURVIVAL ([1]; 0.3 mM POH + 5.5 Gy): 0.003 ± 0.0058% | % SURVIVAL ([1]; 0.5 mM POH 72 h, no radiation): 0.244 ± 0.009% | % SURVIVAL ([1]; 0.5 mM POH + 5.5 Gy): 0.001 ± 0.00067% | % SURVIVAL (DLD-1 colon cancer cells; 0.1 mM POH 72 h, no radiation): 1.690 ± 0.100% | % SURVIVAL (DLD-1 colon cancer cells; 0.1 mM POH + 5.5 Gy): 0.038 ± 0.009% | % SURVIVAL (DLD-1 colon cancer cells; 0.3 mM POH 72 h, no radiation): 0.899 ± 0.070% | % SURVIVAL (DLD-1 colon cancer cells; 0.3 mM POH + 5.5 Gy): 0.050 ± 0.003% | % SURVIVAL (DLD-1 colon cancer cells; 0.5 mM POH 72 h, no radiation): 0.019 ± 0.001% | % SURVIVAL (DLD-1 colon cancer cells; 0.5 mM POH + 5.5 Gy): 0.001 ± 0.001% | plasma levels of terpene metabolites [2]: 820 µM | Fas-mediated apoptosis [3]: augmented Fas-mediated apoptosis | function of Fas Ligand on treated T98G towards Jurkat cells [4]: brought about cell death | sensitization to cisplatin-induced cell death (T98G cells): dose-dependent sensitization | % SURVIVAL ([5]; 0.1 mM POH 72 h, no radiation): 0.648 ± 0.008% | % SURVIVAL ([5]; 0.1 mM POH + 5.5 Gy): 0.044 ± 0.00157% | % SURVIVAL ([5]; 0.3 mM POH 72 h, no radiation): 0.456 ± 0.0112% | % SURVIVAL ([5]; 0.3 mM POH + 5.5 Gy): 0.026 ± 0.00076% | % SURVIVAL ([5]; 0.5 mM POH 72 h, no radiation): 0.207 ± 0.005% | % SURVIVAL ([5]; 0.5 mM POH + 5.5 Gy): 0.017 ± 0.005% | potency at inducing tumor regression relative to limonene (rat mammary carcinoma; dietary): greater than five times more potent than limonene | regression of rat mammary carcinoma (rat mammary carcinoma; induced by DMBA): 84% | regression of rat mammary carcinoma (rat mammary carcinoma; induced by NMU): 60% | effect of higher concentrations on tumor cell lines ([6]; 1 mM POH): cell death via apoptosis | toxicity to tumor cell lines ([6]; clinically relevant doses 0.1 mM–0.5 mM): relatively non-toxic
